Tests used:
[1] = system: neonatal mouse model of oxygen-induced retinopathy; assay: Neonatal mouse model of oxygen-induced retinopathy, pre-retinal nuclei count; type: in vivo; conditions: FIG. 1
Description: In the neonatal mouse model of oxygen-induced retinopathy, 7-day old mice are placed with their nursing dams in a 75% oxygen atmosphere for 5 days. Mouse pups receive twice a day gavage feedings of arginine-glutamine dipeptide or control solution (50 μL) starting on postnatal day 12 (P12) and continuing through postnatal day 17 (P17). Gavage feeds include a control (0.9% sodium chloride) and the test compounds and different doses of arginine-glutamine dipeptide (1.0, 2.5 and 5 g/kg·day). The daily dosage of the dipeptide is divided evenly between the two daily gavage feedings.
After the fifth day following return to normoxia (P17), the animals are euthanized by injection of a lethal dose of a combination of ketamine (70 mg/kg body weight) and xylazine (15 mg/kg body weight) followed by cervical dislocation. The eyes are removed and fixed in 4% paraformaldehyde, embedded in paraffin, and sectioned. Pre-retinal nuclei are counted by masked observers. Efficacy of treatment is calculated as the percent average nuclei per section in the eyes of arginine-glutamine dipeptide treated animals versus control animals.
Some of the eyes are taken for qualitative retinal flatmount analysis. For these mice, at the time of euthanasia, the mice are perfused with fluorescein isothiocyanate-labeled dextran to visualize the vasculature. […]

Bcl-2 = assay: Brain Bcl-2 levels by immunoblotting in hyperoxia-exposed neonatal mice; type: in vivo; conditions: mouse brain, hyperoxic conditions, treated with dipeptide; FIG. 3
Description: (§1) In the neonatal mouse model of oxygen-induced retinopathy, 7-day old mice are placed with their nursing dams in a 75% oxygen atmosphere for 5 days. Mouse pups receive twice a day gavage feedings of arginine-glutamine dipeptide or control solution (20 μL) starting on postnatal day 12 (P12) and continuing through postnatal day 17 (P17). In one experiment, different dosages of arginine-glutamine dipeptide (1.0, 2.5 and 5 g/kg·day as a hydrochloride salt, Bachem, Babendorf, Switzerland) are tested. In a second experiment, arginine-glutamine dipeptide (5 g/kg day) is given and a normoxia group is used as a control.
(§2) After the fifth day following return to normoxia (P17), the animals are euthanized by injection of a lethal dose of a combination of ketamine (70 mg/kg body weight) and xylazine (15 mg/kg body weight) followed by cervical dislocation.
Bcl-2 levels are determined using standard immunoblotting techniques. The brain is homogenized with a Polytron homogenizer, and the homogenates are stored in aliquots at −80° C. Gel electrophoresis is performed using the BioRad electrophoresis system (Carlsbad, Calif.). […] Protein bands are quantified by densitometry.

[2] = system: intestinal injury induced by hyperoxia in a mouse model; assay: Histological intestinal damage score in hyperoxia-exposed neonatal mice; type: in vivo; conditions: ileum histology, score 0 to 4+ (0=no damage, 4=severe damage); hyperoxic conditions plus dipeptide by gavage; hyperoxia alone 3.5; FIG. 2
Description: as §1, §2
Intestinal injury is evaluated using histological techniques. A portion of intestine from the ileum is fixed in 10% (w·v) neutral buffered formalin for 24 hours for light microscopy. The intestine is paraffin embedded, cut into 4 μm sections, mounted on glass slides, and stained with hematoxylin and eosin according to standard procedures. Histological analyses are performed using a damage scoring system from 0 to 4+ (0=no damage, 4=severe damage with mucosal sloughing) to determine the severity of the intestinal injury.

caspase-3 = assay: Brain caspase-3 colorimetric activity assay in hyperoxia-exposed neonatal mice; type: in vivo, mouse; conditions: compared to hyperoxic mice; FIG. 4
Description: as §1, §2
Caspase-3 activity is determined using a Caspase-3 Colorimetric Activity Assay Kit (Chemicon International, Inc., Temecula, Calif.). The brain is homogenized with a Polytron homogenizer, and the homogenates are stored in aliquots at −80° C.

Substance: arginine-glutamine dipeptide
- dose/response of reduction of nuclei per section ([1]; dosages between 1 g/kg·day and 5 g/kg·day, highest effectiveness at 5 g/kg·day): highest level of effectiveness was shown at 5 g/kg·day
- average number of nuclei per section in the eyes ([1]; neonatal mice exposed to hyperoxia (75% oxygen, 5 days), gavage twice a day P12-P17, 1, 2.5 and 5 g/kg·day, versus control (0.9% sodium chloride)): decreased at all levels of administration
- increased Bcl-2 expression in brain (Bcl-2): 33%
- average intestinal damage score [2]: 1.67
- reduction in brain caspase-3 activity (caspase-3): 32%
